We go through 1 compound from patent US20230321063A1, “COMPOSITIONS AND METHODS TO REDUCE NEUROINFLAMMATION” (Seattle Children's Hospital d/b/a Seattle Children's …, priority 2020, published 2023).

One data set deals with Ndufs4(KO) mice. Put plainly: Rotarod assay. Format: in vivo, mouse. The conditions noted are these: latency to fall up to 10 min, 6 rpm. On the procedure:
Rotarod and rotarod seizures. Rotarod assays were performed using a Med Associates Inc. (Fairfax, VT) ENV-571M single lane rotarod with a black mat installed in the floor of the lane to reduce visibility of the bottom. Assays were performed by placing animals onto an already rotating rod and timing latency to fall, with a steady rotation speed set to 6 rpm (controlled by attached laptop and Med Associates software). The maximum time of each trial was 10 min, with the trial ending at that time if mice were still on the rotarod. For each assay, three trials were performed, with a minimum of 5 min between each assay. The best of the three trials was reported for the rotarod data. As detailed in the text and figure legends, rotarod was performed each 10 days of age from P30; mice in a given age group were the reported age +/−1 day.
Background: In the rotarod test animals must keep their balance on a rotating rod.

The subject of data set [1] is non-lesion CNS tissue in Ndufs4(KO) mice. In words: Brain immunological staining: microglia and astrocytes in cortex and brainstem outside of overt lesions. Format: in vivo, mouse. To be noted: 300 mg/kg/day. As for the experimental part: Brain immunological staining and microscopy. Brains were fixed for 48 hours in 10% formalin at 4° C. Following fixation, brains were moved to a cryoprotectant solution (30% sucrose, 1% DMSO, 100 μM glycine, 1×PBS, 0.45 μm filtered, pH 7.5), and stored for over 48 hours, until the fixed tissues sank to the bottom. Tissues were then placed in OCT media (Tissue-Tek OCT compound, Sakura 0004348-01), frozen in cryoblock holders on dry ice, and stored at −80° C. until sectioned for staining. Cryoblocks were cut at 50 μm thickness using a Leica CM30505 cryostat set at −40° C. Slices were moved to 1×PBS and stored at 4° C. until used for staining. Prior to staining, slices were mounted on slides and briefly dried to adhere.
Antibody staining was performed as follows: slides were first incubated in an antigen retrieval and permeabilization buffer (0.05% Triton X-100, 50 μM digitonin, 10 mM Tris-HCl, 1 mM EDTA, pH 9.0) at 60° C. overnight in a white-light LED illuminated box (to promote photobleaching of tissue autofluorescence). To reduce formaldehyde induced background fluorescence, slides were treated with sodium borohydride in ice cold PBS, added at 1 mg/mL immediately before incubation, on ice for 30 min, then moved to 10 mM glycine 1×PBS, pH 7.4, for 5 min at room temperature. Lipid background fluorescence was then blocked by incubating slides in 0.2 μm filtered Sudan Black B solution (5 mg/mL in 70% ethanol) overnight at room temperature. Slides were then rinsed twice, 5 min each, in 1×PBS. Excess fluid was wiped from the slide, and the tissue was circled using Liquid Blocker PAP pen (Fisher Scientific, NC9827128) to hold staining solutions. Slides were blocked for 15 min at room temperature in 1×PBS with 10% rabbit serum (Gibco, 16120-099) then stained overnight at 4° C. in a mixture of rabbit anti-IBA1-fluorochrome 635 conjugated (WAKO 013-26471) at 1:300, mouse anti-GFAP, Alexa555 conjugated (Cell Signaling, 3656S) at 1:300, and DAPI (Sigma, D9542) at 1 μg/mL. […]

Data set [2] relates to control and Ndufs4(KO) animals. In words: Observation of coat color under treatment. The format is in vivo, mouse. To be noted: higher doses (of 100, 200, 300 mg/kg/day) in chow. On the procedure: To directly test this model, Ndufs4(KO) and control animals were treated with 100, 200, or 300 mg/kg/day pexidartinib in normal mouse chow (dosing is approximated based on food consumption, see Experimental Methods in Example 1).

Data set [3] has as its system microglia in mixed neonatal brain-cell cultures. Put plainly: Fraction of microglia in mixed primary brain cultures (Iba1 staining). The format is cell-based, mouse. As for the experimental part: Mixed brain cell culturing and staining. Briefly, using sterile technique, brains were removed from neonatal pups into ice-cold HBSS (Gibco cat. #14025076). Brains were washed three times in cold PBS. After the third wash, brains were minced using surgical scissors into small, fine pieces. The minced brain was centrifuged at 100 g for 5 min. Once pelleted, PBS was removed and 0.05% trypsin/EDTA (Gibco) was added. The tissue in trypsin/EDTA was then incubated at 37° C. with gentle shaking for 15-30 min, with intermittent mixing and supplemental mincing, until the solution was homogenous and without tissue segments. After incubation, the minced tissue was placed back into the centrifuge at 100 g 5 min. Pellet was washed 3× with cold PBS before adding fresh media to each tube. The tissue was further dissociated using 1000 μL pipet until the solution became cloudy. The sample was washed through a sterile 70-micron cell strainer (Corning) into a 50 mL falcon tube, then plated onto T75 poly-d-lysine coated Nunclon flasks (Nunc EasyFlask132704) at a ratio of one brain to two flasks. After 24 hours, dead cell/debris were washed and media replaced. Cells were then grown for 1 additional day, split onto multi-well plates with poly-d-lysine coated coverslips (Cellware 12 mm round coverslips) at 25% confluence with ABI-009 or pexidartinib (for dose-response) added. […]

The conditions of data set [4]: cited from earlier work.

“Also recorded” adds a separate entry of the source.

Take `FC(F)(F)c1ccc(CNc2ccc(Cc3c[nH]c4ncc(Cl)cc34)cn2)cn1` [pexidartinib, 5-[(5-chloro-1H-pyrrolo[2,3-b]pyridin-3-yl)methyl]-N-[[6-(trifluoromethyl)pyridin-3-yl]methyl]pyridin-2-amine]: the “performance on rotarod assay” value in the data set on Ndufs4(KO) mice was “rescued performance; also recorded: dose-dependent effect”. Further, in data set [1], the “astrocyte numbers in non-lesion CNS tissue” value was “rescued to control levels”. Also, the “microglia numbers in non-lesion CNS tissue” value in data set [1] (beyond that of untreated control animals) was “near complete depletion of microglia”. Besides, in data set [1] (cortex and brainstem outside overt lesions), the “astrocytosis and microgliosis in non-lesion CNS tissue” value is “prevented both forms of gliosis”. The coat/fur color entry is given as “turns fur white; also recorded: change in mouse coat color” in data set [2] and “caused animal fur to whiten” in data set [2] (listed as Pexidartinib). The “maximum effect on microglia” value in data set [3] is listed as “nearly complete depletion of microglia”. In addition, the “fraction of microglia present in mixed neonatal brain-cell cultures” value in data set [3] (dose-response, fixed on day 7) is reported as “dose-dependently reduced”. In addition, in data set [4] (patients), the liver damage result was “known to cause liver damage”. In addition, in data set [4] (reports in humans), the “hair color in humans” value was “hair whitening in humans”.
